# Results reported in patent publication US20090099169A1, “Benzofuran Compounds As EP1 Receptor Antagonists” (GLAXO GROUP LIMITED, priority 2006, published 2009).
# Counter-ions that a name gives are not always drawn.
# What was measured:
# [1] = test system: gastric lesions induced by taurocholate acid, aspirin or indomethacin; settings: rats, Ogletree et al 1992; cited from earlier work
# [2] = target: T1, human EP1 receptor (Homo sapiens, UniProt P34995); assay: Binding assay for the human prostanoid EP1 receptor (radioligand competition); set-up: expressed in transfected cells; host or cells: CHO-K1 (membranes); settings: CHO-K1 membranes; [3H]-PGE2 for Examples 1-17, 19, 33, 34, 60 and 61, 3-{2-[5-Bromo-2-(2,4-difluorobenzyloxy)-phenyl]-5-methyl-pyrrol-1-yl}-6-[3H3-methoxy]methoxy-benzoic acid for the remaining; averages of a number of experiments; read-out: pIC50 value (binding assay for the human prostanoid EP1 receptor) (converted)
# T1 sequence (P34995 1-402): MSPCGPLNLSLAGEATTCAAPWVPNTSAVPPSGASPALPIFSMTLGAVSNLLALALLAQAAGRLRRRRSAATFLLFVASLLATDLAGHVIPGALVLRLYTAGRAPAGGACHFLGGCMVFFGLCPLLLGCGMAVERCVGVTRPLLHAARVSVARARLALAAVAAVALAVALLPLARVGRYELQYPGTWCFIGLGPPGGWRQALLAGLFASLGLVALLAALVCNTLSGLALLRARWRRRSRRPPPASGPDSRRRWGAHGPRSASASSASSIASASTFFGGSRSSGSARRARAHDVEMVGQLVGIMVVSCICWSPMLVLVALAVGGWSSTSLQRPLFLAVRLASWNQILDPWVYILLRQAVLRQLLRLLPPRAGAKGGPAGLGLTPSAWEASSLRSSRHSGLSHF
# How it was run: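 Membranes from CHO-K1 cells stably expressing human EP1, in pH 6 MES buffer with 10 mM MgCl2. Competition with [3H]-PGE2 (3 nM final) for 30 min at 30 °C, or alternatively with a tritiated benzoic-acid ligand (0.2 nM final) for 45 min at 37 °C; filtration and scintillation counting, IC50 by non-linear fitting.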
# [3] = target: T2, human TP receptor (Homo sapiens, UniProt P21731); assay: human TP calcium mobilisation assay; type: cell-based; settings: CHO-K1 cells, antagonism of U46619; averages of a number of experiments; read-out: functional pKi value (human TP calcium mobilisation assay) (converted)
# T2 construct: expressed in transfected cells; host or cells: CHO-K1
# T2 sequence (P21731 1-343): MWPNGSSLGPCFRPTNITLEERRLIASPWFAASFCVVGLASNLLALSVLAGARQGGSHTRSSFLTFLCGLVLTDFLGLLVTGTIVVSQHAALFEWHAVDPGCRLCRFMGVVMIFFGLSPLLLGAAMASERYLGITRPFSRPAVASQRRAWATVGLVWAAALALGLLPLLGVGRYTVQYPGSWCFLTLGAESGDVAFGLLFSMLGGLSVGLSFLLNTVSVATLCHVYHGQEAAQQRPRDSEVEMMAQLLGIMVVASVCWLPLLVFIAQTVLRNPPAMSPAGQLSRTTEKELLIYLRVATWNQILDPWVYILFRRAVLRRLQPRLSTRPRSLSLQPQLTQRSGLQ
# Experimental: To determine if a compound has agonist or antagonist activity at the TP receptor a functional calcium mobilisation assay may be performed. Briefly, the antagonist properties of compounds are assessed by their ability to inhibit the mobilisation of intracellular calcium ([Ca^2+]i) in response to activation of TP receptors by the stable TXA2 mimetic U46619 (9,11-dideoxy-11α,9α-epoxy-methanoprostaglandin F2α; commercially available from e.g Sigma-Aldrich). Increasing concentrations of antagonist reduce the amount of calcium that a given concentration of U46619 can mobilise. The net effect is to displace the U46619 concentration-effect curve. The amount of calcium produced is assessed using a calcium-sensitive fluorescent dye such as Fluo-4, AM and a suitable instrument such as a Fluorimetric Imaging Plate Reader (FLIPR). Increasing amounts of [Ca^2+]i produced by receptor activation increase the amount of fluorescence produced by the dye and give rise to an increasing signal. The signal may be detected using the FLIPR instrument and the data generated may be analysed with suitable curve-fitting software. The agonist activity of the compounds are determined by their ability to cause an increase in intracellular mobilisation in the absence of U46619.
# (§1) The human TP calcium mobilisation assay utilises Chinese hamster ovary-K1 (CHO-K1) cells into which a stable (pCIN; BioTechniques 20 (1996): 102-110) vector containing TP cDNA has previously been transfected. Cells are cultured in suitable flasks containing culture medium such as DMEM:F-12 supplemented with 10% v/v foetal calf serum, 2 mM L-glutamine, 0.25 mg/ml geneticin, 100 μM flurbiprofen and 10 μg/ml puromycin.
# (§2) For assay, cells are harvested using a proprietary reagent that dislodges cells such as Versene. Cells are re-suspended in a suitable quantity of fresh culture media for introduction into a 96-well plate. Following incubation for 24 hours at 37° C. the culture media is replaced with a medium containing Fluo-4 and the detergent pluronic acid, and a further incubation takes place. Concentrations of compounds are then added to the plate in order to construct concentration-effect curves. This may be performed on the FLIPR in order to assess the agonist properties of the compounds. Concentrations of U46619 are then added to the plate in order to assess the antagonist properties of the compounds.
# The data so generated may be analysed by means of a computerised curve-fitting routine. The concentration of compound that elicits a half-maximal inhibition of the calcium mobilisation induced by U46619 (pIC50) may then be estimated, and the percentage activation caused by the compounds directly can be used to determine if there is any agonism present.
# [4] = target: T3, human EP3 receptor (Homo sapiens, UniProt P43115); assay: human EP3 calcium mobilisation assay; type: cell-based; settings: CHO-K1 cells, antagonism of PGE2; averages of a number of experiments; read-out: functional pKi value (human EP3 calcium mobilisation assay) (converted)
# T3 construct: expressed in transfected cells; host or cells: CHO-K1
# T3 sequence (P43115 1-390): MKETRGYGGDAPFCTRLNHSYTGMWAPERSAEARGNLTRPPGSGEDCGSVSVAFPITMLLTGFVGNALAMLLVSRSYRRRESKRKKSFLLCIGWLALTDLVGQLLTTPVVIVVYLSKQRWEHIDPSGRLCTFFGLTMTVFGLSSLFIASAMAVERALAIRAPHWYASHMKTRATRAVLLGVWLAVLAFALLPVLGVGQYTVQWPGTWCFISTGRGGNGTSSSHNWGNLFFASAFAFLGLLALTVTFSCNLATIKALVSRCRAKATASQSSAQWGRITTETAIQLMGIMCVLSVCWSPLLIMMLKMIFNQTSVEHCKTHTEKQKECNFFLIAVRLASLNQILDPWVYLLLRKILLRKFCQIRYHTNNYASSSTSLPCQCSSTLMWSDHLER
# Experimental: Briefly, the antagonist properties of compounds are assessed by their ability to inhibit the mobilisation of intracellular calcium ([Ca^2+]i) in response to activation of EP1 or EP3 receptors by the natural agonist hormone prostaglandin E2 (PGE2). Increasing concentrations of antagonist reduce the amount of calcium that a given concentration of PGE2 can mobilise. The net effect is to displace the PGE2 concentration-effect curve to higher concentrations of PGE2. The amount of calcium produced is assessed using a calcium-sensitive fluorescent dye such as Fluo-4, AM and a suitable instrument such as a Fluorimetric Imaging Plate Reader (FLIPR). Increasing amounts of [Ca^2+]i produced by receptor activation increase the amount of fluorescence produced by the dye and give rise to an increasing signal. The signal may be detected using the FLIPR instrument and the data generated may be analysed with suitable curve-fitting software.
# as §1, with “human EP1 or EP3” for “human TP”, “assay (hereafter referred to as ‘the calcium assay’)” for “assay”, “stable (PCIN;” for “stable (pCIN;”, “containing either EP1 or EP3” for “containing TP”
# as §2, with “384-well” for “96-well”, “PGE2” for “U46619”
# The data so generated may be analysed by means of a computerised curve-fitting routine. The concentration of compound that elicits a half-maximal inhibition of the calcium mobilisation induced by PGE2 (pIC50) may then be estimated.
# [5] = target: T1, human EP1 receptor; assay: human EP1 calcium mobilisation assay; type: cell-based; set-up: expressed in transfected cells; settings: CHO-K1 cells, antagonism of PGE2; averages of a number of experiments; read-out: functional pKi value (human EP1 calcium mobilisation assay) (converted)
# How it was run: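 CHO-K1 cells stably transfected with human EP1 or EP3, loaded with Fluo-4 after 24 h culture, treated with compound, then challenged with PGE2. Calcium-driven fluorescence read on FLIPR; pIC50 is half-maximal inhibition of PGE2-induced calcium mobilisation, from curve fitting.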
# [6] = test system: rat model of chronic constriction injury; settings: Anesthesia and Analgesia 2001, 93, 1012-7; cited from earlier work
# [7] = test system: rodent model of post-operative pain; settings: Anesthesia and Analgesia 2001, 92, 233-238; cited from earlier work
IC50 [2] [nM],Ki [4] [nM],Ki [5] [nM],Compound,other results
–,–,–,O=C(O)Cc1ccc(CCNS(=O)(=O)c2ccc(Cl)cc2)cc1 [BM 13505],gastric lesions [1]: inhibit gastric lesions
≤ 100,–,–,"CC(C)c1cc2cc(Cl)cc(Cc3ccc(-c4nc5ccccc5[nH]4)o3)c2o1 [Example 2, 2-(5-{[5-Chloro-2-(1-methylethyl)-1-benzofuran-7-yl]methyl}-2-furanyl)-1H-benzimidazole Hydrochloride]",Ki [3]: > 3160 nM
–,501 to 10000,–,"CC(C)c1cc2cc(Cl)cc(Cc3ccc(C(=O)Nc4c(F)cccc4F)o3)c2o1 [Example 8, 5-{[5-Chloro-2-(1-methylethyl)-1-benzofuran-7-yl]methyl}-N-(2,6-difluorophenyl)-2-furancarboxamide]",Ki [3]: > 3160 nM
≤ 100,501 to 10000,≤ 316,"CC(C)c1cc2cc(Cl)cc(Cc3ccc(C(=O)Nc4ccc(CN5CCC(O)CC5)cc4)o3)c2o1 [Example 55, 5-{[5-Chloro-2-(1-methylethyl)-1-benzofuran-7-yl]methyl}-N-{4-[(4-hydroxy-1-piperidinyl)methyl]phenyl}-2-furancarboxamide Hydrochloride]",–
≤ 100,501 to 10000,≤ 316,Cc1cc(C(=O)Nc2ccc(CO)cc2)nn1Cc1cc(Br)cc2cc(C(C)C)oc12 [Example 71],–
≤ 100,501 to 10000,≤ 316,"CC(C)c1cc2cc(Cl)cc(Cc3ccc(C(=O)Nc4ccc(CO)cc4)o3)c2o1 [Example 72, 5-{[5-Chloro-2-(1-methylethyl)-1-benzofuran-7-yl]methyl}-N-[4-(hydroxymethyl)phenyl]-2-furancarboxamide]",–
–,–,–,Cc1cc(Cl)ccc1S(=O)(=O)NC[C@H]1C2CCC(CC2)[C@@H]1/C=C\CCCC(=O)O [ONO-8711],hyperalgesia and allodynia [6]: reduces hyperalgesia and allodynia; mechanical hyperalgesia [7]: inhibits mechanical hyperalgesia
